The IC50 is the point on the concentration scale where inhibition reaches its midpoint. A high value points to lower potency.

Experimental findings from PMC4997316, “A ruthenium polypyridyl intercalator stalls DNA replication forks, radiosensitizes human cancer cells and is enhanced by Chk1 inhibition” (Scientific Reports, 2016) are described below.

Format in all cases: cell-based, human
The subject of test [1] is HeLa cervical cancer cells. Put plainly: MTT proliferation assay, HeLa. The following applies: 24 h proliferation assay. On the procedure:
(§1) (LC3 = Microtubule-associated protein light chain 3) (Fig. 2b, bottom).
(§2) Cells were seeded in 96 well plates at 20,000 cells/well, allowed to proliferate for 24 h before treatment as described in the main text. 0.5 mg ml^−1 MTT (thiazolyl blue tetrazolium bromide) dissolved in serum-free media was added for 60 minutes and the formazan product eluted using acidified isopropanol. The absorbance at 540 nm was quantified by plate reader (reference wavelength 650 nm). The metabolic activity of the cell population was determined as a percentage of a negative (solvent) control.
A general note: Tetrazolium dyes change colour on reduction, which living cells bring about.

Test [2] relates to cleaved caspase-3 and LC3-II in HeLa cells. Put plainly: Western blotting for cell death markers (cleaved caspase 3, LC3-II). The following applies: 24 h, concentrations centred on IC50. The procedure:
Figure 2 Complexes 1 and 2 are internalised by cancer cells and impact proliferation. (a) Effect of 40 μM 1 or 2 (0–72 h incubation time) on numbers of viable (left) and non-viable (right, data expressed as % total cells, independent of viability) HeLa cells (in triplicate, +/− SD). […] (c) Intracellular Ru levels of HeLa cells treated with 1 or 2 (40 μM, 24 h), as determined by ICP-MS. (d) Ru levels within isolated subcellular fractions of HeLa cells treated with 1 or 2 (40 μM, 24 h). Fractions: C = cytoplasm and cytoskeleton, M = membrane, N = nucleus. Successful fractionation confirmed by immunoblotting (right). All ICP-MS data were normalised to protein content of the corresponding fraction and are the mean of two independent experiments +/− SEM. (e) Epifluorescence microscopy of HeLa cells treated with 1 or 2 (40 μM, 24 h) showing intracellular MLCT emission. Co-staining with nuclear stain DAPI included. Scale bars = 20 μm.
Cells were incubated as stated, washed with cold PBS and lysed in RIPA (radioimmunoprecipitation assay) buffer containing protease inhibitors (10 μg/ml leupeptin, 2 μg/ml pepstatin, 50 μg/ml antipain, 2 μg/ml aprotinin, 20 μg/ml chyprostatin, 2 μg/ml benzamidine, 1 mM phenylmethanesulfonyl fluoride) and phosphatase inhibitors (50 mM NaF, 1 mM Na3VO4 and 20 mM β-glycerophosphate). Aliquots of cell lysates (5–20 μg total protein) were resolved by NuPAGE® 4–12% Bis-Tris gels and LDS-PAGE, transferred onto nitrocellulose membrane and probed with primary antibodies in 5% BSA (bovine serum albumin) solutions. Reactions were visualised with a suitable secondary antibody conjugated with horseradish peroxidase (Thermo). Pierce ECL (Thermo) or WesternSurePREMIUM (Li-Cor) chemiluminescent substrates with X-ray development (Fuji medical film and Optimax 2010 processor) or digital analysis (LiCor C-Digit Blot Scanner) were used to visualise protein expression. Li-Cor Image Studio Lite software was used for densitometry data acquisition.
(In general: In western blotting, separated proteins are transferred to a membrane and probed.)

Test [3] has as its system replication forks in HeLa cells. Kind of test: DNA fibre assay (replication fork progression). The following applies: for median IdU tract length: 40 μM added during 30 min IdU pulse, mock 6.10 μm. On the procedure:
Replication tracks were sequentially pulse-labelled with CldU (red) and IdU (green) and the addition of 1 or 2 during the second (IdU) pulse enabled us to evaluate the immediate effect of each complex on individual replication fork progression in S phase cells (Figs 3a and S12).
DNA fibre assays and immunofluorescent staining were performed as described elsewhere, employing sequential CldU and IdU incubation times of 30 mins each. The second nucleotide (IdU) was incubated in the presence of 1, 2 (40 μM) or a DMSO (0.5%) control. Fibres were visualised with a Leica DMRB microscope with a DFC360FX camera. Lengths of CldU- and IdU-labeled tracts were measured by ImageJ software. Statistical analysis was performed using GraphPad Prism software using unpaired t-test.

Test [4] has as its system γH2AX in HeLa cells. Put plainly: γH2AX expression after irradiation (Western blot densitometry). The conditions noted are these: 40 μM 20 h then 6 Gy IR, harvested 1 h after irradiation. The procedure:
Chemotherapeutics are often used in combination with external beam ionising radiation in the treatment of cancers and many drugs that inhibit DNA replication are potent radiosensitizers. To examine the possibility that 1 may function as a radiosensitizer, HeLa cells were pre-treated with 1 for 20 h before irradiation (0–6 Gy ionising irradiation (IR); ^137Cs-γ-rays; dose rate = 0.809 Gy min^−1). After further incubation for 4 h with the complex, the relative impact on cell viability was assessed by clonogenic survival. Complex 2, which achieves its impact on cell proliferation through non-DNA damage-based autophagy, was included in parallel for comparison. […] The formation of γH2AX is an early response to IR-induced DSB generation and may provide an indication of DNA damage levels. […]
Figure 6 [Ru(dppz)2(PIP)]^2+ sensitises human cancer cells to external beam ionising radiation. […] Survival fraction (S. F.) as a result of each treatment was determined by clonogenic assay and is presented as the mean +/− SD of two independent experiments where each experiment was performed in triplicate. […] Cells were harvested 1 h after irradiation and lysates analysed by Western blotting (left). γH2AX levels were measured by densitometry relative to β-actin loading controls and normalised to DMSO + 6 Gy data (right). […]

Test [5] relates to MCF7 breast cancer cells. Put plainly: MTT proliferation assay, MCF7. The following applies: 24 h proliferation assay. On the procedure:
as §1, §2

Take `Oc1ccc(-c2nc3c4cccnc4c4ncccc4c3[nH]2)cc1.[Ru+2].c1ccc2nc3c4cccnc4c4ncccc4c3nc2c1.c1ccc2nc3c4cccnc4c4ncccc4c3nc2c1` [Complex 2, [Ru(dppz)2(p-HPIP)]^2+]: the IC50 was found to be 14 µM in test [1] and 12 µM in test [5]. In test [2], the “generation of apoptosis marker cleaved caspase-3” value is reported as “no generation of the apoptosis marker cleaved caspase-3”. The “levels of autophagy marker LC3-II” value in test [2] is on record as “greater in cells treated with 2 at IC50 concentrations or greater compared to untreated”. For the same compound, the “median IdU tract length” value in test [3] is 6.24 μm. Besides, the “impact on replication fork progression” value in test [3] (40 μM during IdU pulse) was “negligible impact on replication fork progression”. The “γH2AX levels compared to IR alone” value in test [4] is listed as “no such increase in γH2AX expression”.

`[Ru+2].c1ccc(-c2nc3c4cccnc4c4ncccc4c3[nH]2)cc1.c1ccc2nc3c4cccnc4c4ncccc4c3nc2c1.c1ccc2nc3c4cccnc4c4ncccc4c3nc2c1` [Complex 1, [Ru(dppz)2(PIP)]^2+] displayed an IC50 in test [1] of 38 µM. Further, in test [2], the “generation of apoptosis marker cleaved caspase-3” value is given as “no generation of the apoptosis marker cleaved caspase-3” and the “levels of autophagy marker LC3-II” value is given as “no detectable increase”. Besides, the “median IdU tract length” value in test [3] came out at 2.18 μm. In test [3] (40 μM during IdU pulse, mock 7.5 +/− 1%), the “stalled replication forks (red tract only), of total replication forks” value is listed as 17 +/− 1%. Besides, the “γH2AX levels compared to IR alone” value in test [4] is recorded as “approximately two-fold greater”. In addition, in test [5], the IC50 amounted to 28 µM.
